Assay results reported in patent US9890166B2, “Imidazopyrrolidine derivatives and their use in the treatment of disease” (NOVARTIS AG, priority 2013, dated 2018).

Key:
BRD4 (His-Brd4(44-477)) = BRD4 (His-Brd4(44-477)) (Homo sapiens (Human), UniProt O60885); assay: TR-FRET in-vitro binding assay for BRD4; details: single determination or n ≧ 2 independent determinations, read-out: Biochemical IC50 BRD4
How it was run: (§1)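 TR-FRET binding with His-tagged bromodomain constructs, 8-point compound dilutions from 10 mM DMSO stocks. Reactions incubated 35 min at 30° C in 13.55 μL, read on an EnVision multilabel reader.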

BRD2 (His-Brd2(60-472)) = BRD2 (His-Brd2(60-472)) (Homo sapiens (Human), UniProt P25440); assay: TR-FRET in-vitro binding assay for BRD2; details: single determination or n ≧ 2 independent determinations, read-out: Biochemical IC50 BRD2
Sequence of BRD2 (His-Brd2(60-472)) (P25440 60-472): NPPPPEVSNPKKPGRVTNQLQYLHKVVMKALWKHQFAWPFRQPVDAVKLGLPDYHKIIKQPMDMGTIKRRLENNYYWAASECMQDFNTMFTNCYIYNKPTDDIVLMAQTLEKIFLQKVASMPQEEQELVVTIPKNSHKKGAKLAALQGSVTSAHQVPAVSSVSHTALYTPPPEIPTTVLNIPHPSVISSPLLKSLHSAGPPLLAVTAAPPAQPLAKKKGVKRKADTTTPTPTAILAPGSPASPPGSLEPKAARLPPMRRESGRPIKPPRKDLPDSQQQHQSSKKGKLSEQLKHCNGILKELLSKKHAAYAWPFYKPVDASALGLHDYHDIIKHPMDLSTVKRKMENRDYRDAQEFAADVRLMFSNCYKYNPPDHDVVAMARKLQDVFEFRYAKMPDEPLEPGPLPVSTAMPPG
How it was run: as §1

BRD3 (His-Brd3(20-477)) = BRD3 (His-Brd3(20-477)) (Homo sapiens (Human), UniProt Q15059); assay: TR-FRET in-vitro binding assay for BRD3; details: single determination or n ≧ 2 independent determinations, read-out: Biochemical IC50 BRD3
Sequence of BRD3 (His-Brd3(20-477)) (Q15059 20-477): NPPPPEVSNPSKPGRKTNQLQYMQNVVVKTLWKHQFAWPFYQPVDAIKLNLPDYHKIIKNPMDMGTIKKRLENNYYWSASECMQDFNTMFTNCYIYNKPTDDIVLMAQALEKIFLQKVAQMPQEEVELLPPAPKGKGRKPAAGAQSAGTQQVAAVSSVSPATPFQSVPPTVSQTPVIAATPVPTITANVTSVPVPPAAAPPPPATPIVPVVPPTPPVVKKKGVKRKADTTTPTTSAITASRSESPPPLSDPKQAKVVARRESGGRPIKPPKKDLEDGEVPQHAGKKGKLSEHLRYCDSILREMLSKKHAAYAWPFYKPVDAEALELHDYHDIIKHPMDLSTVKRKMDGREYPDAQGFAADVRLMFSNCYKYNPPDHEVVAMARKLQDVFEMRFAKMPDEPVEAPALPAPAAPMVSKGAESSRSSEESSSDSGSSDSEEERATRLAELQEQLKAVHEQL
How it was run: as §1

[1] = biological target: CREBBP bromodomain (His-CREBBP(1081-1197)) (Homo sapiens (Human), UniProt Q92793); assay: AlphaScreen in-vitro binding assay for CREBBP; details: single determination or n ≧ 2 independent determinations, read-out: Biochemical IC50 CREBBP
Sequence of CREBBP bromodomain (His-CREBBP(1081-1197)) (Q92793 1081-1197): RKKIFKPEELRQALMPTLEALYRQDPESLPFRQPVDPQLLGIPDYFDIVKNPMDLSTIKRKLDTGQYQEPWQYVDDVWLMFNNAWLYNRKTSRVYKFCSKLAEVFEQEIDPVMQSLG
How it was run: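 Reactions at 30 °C for 35 min, then Ni-chelate acceptor and streptavidin donor beads in HEPES pH 7.5, NaCl, Tween20, BSA, 60 min at room temperature. Eight-point compound series; IC50 by non-linear regression of percent inhibition.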

THP-1 cells = assay: Cell growth inhibition assay (CellTiter-Glo), THP-1; details: for GI50: Homo sapiens, THP-1, read-out: THP-1 GI50; for THP-1 TGI: THP-1 cells, total growth inhibition, CellTiter-Glo;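 for all read-outs here: viability read as cellular ATP luminescence after 4 days, 3-fold dilution series from 10 µM, DMSO vehicle-treated cells taken as 100%, cell-free medium wells as −100%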
K-562 cells = assay: Cell growth inhibition assay (CellTiter-Glo), K-562; details: for GI50: Homo sapiens, K562, read-out: K-562 GI50; for K-562 TGI: K-562 cells, total growth inhibition, CellTiter-Glo;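 for all read-outs here: cellular ATP measured by luminescence after 4 days of exposure, 3-fold dilution series from 10 µM, DMSO vehicle-treated cells define 100%, cell-free medium wells −100%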
MV-4-11 cells = assay: Cell growth inhibition assay (CellTiter-Glo), MV-4-11; details: for GI50: Homo sapiens, MV4-11, read-out: MV-4-11 GI50; for MV-4-11 TGI: MV-4-11 cells, total growth inhibition, CellTiter-Glo;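 for all read-outs here: cellular ATP luminescence after 4 days, 3-fold dilution series from 10 µM top dose, vehicle (0.1% DMSO) set to 100%, cell-free medium set to −100%, day 0 corrected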

Structure (SMILES) | IC50 (BRD4 (His-Brd4(44-477))) | IC50 (BRD2 (His-Brd2(60-472))) | IC50 (BRD3 (His-Brd3(20-477))) | IC50 [1] | GI50 (THP-1 cells) | THP-1 TGI (THP-1 cells) | GI50 (K-562 cells) | K-562 TGI (K-562 cells) | GI50 (MV-4-11 cells) | MV-4-11 TGI (MV-4-11 cells)
Cc1cc(N2C(=O)c3nc(C)n(C(C)C)c3C2c2ccc(Cl)cc2)cn2c(C(F)F)nnc12 (stereo not shown) [Example 131, 6-(4-chlorophenyl)-5-(3-(difluoromethyl)-8-methyl-[1,2,4]triazolo[4,3-a]pyridin-6-yl)-1-isopropyl-2-methyl-5,6-dihydropyrrolo[3,4-d]imidazol-4(1H)-one] | 28 nM | 49 nM | 31 nM | > 37000 nM | 23.8 nM | 55 nM | 87.5 nM | >10000 nM | 16.4 nM | 29.5 nM
COc1ncccc1-c1nc2c(n1C(C)C)[C@@H](c1ccc(Cl)cc1)N(c1cc(OC)c3nnn(C)c3c1)C2=O [Example 111] | 14 nM | 33 nM | 20 nM | 8900 nM | 40.2 nM | 92.1 nM | 90.1 nM | >10000 nM | 18.6 nM | 44.65 nM
COc1cc(N2C(=O)c3nc(C4=CCOCC4)n(C(C)C)c3[C@H]2c2ccc(Cl)cc2)cc2c1nnn2C [Example 61] | 24.5 nM | 100 nM | 51.5 nM | 17900 nM | 65.4 nM | 149 nM | 116 nM | >10000 nM | 28.2 nM | 55.1 nM
COc1ncc(-c2nc3c(n2C(C)C)[C@@H](c2ccc(Cl)cc2)N(c2cc(C)c4nnc(C(F)F)n4c2)C3=O)c(OC)n1 [Example 159, (R)-6-(4-chlorophenyl)-5-(3-(difluoromethyl)-8-methyl-[1,2,4]triazolo[4,3-a]pyridin-6-yl)-2-(2,4-dimethoxypyrimidin-5-yl)-1-isopropyl-5,6-dihydropyrrolo[3,4-d]imidazol-4(1H)-one] | < 11 nM | 16 nM | 12 nM | 12600 nM | 12.1 nM | 31.5 nM | 40.5 nM | >10000 nM | 5.86 nM | 15.6 nM
Cc1cc(N2C(=O)c3nc(C)n(C(C)C)c3[C@H]2c2ccc(Cl)cc2)cn2c(C(F)F)nnc12 [Example 146, (R)-6-(4-chlorophenyl)-5-(3-(difluoromethyl)-8-methyl-[1,2,4]triazolo[4,3-a]pyridin-6-yl)-1-isopropyl-2-methyl-5,6-dihydropyrrolo[3,4-d]imidazol-4(1H)-one] | < 11 nM | 20 nM | 12 nM | > 37000 nM | 11 nM | 29.75 nM | 46.9 nM | >10000 nM | 9.57 nM | 15.05 nM
Cc1cc(N2C(=O)c3nc(C4=CCN(C)CC4)n(C(C)C)c3C2c2ccc(Cl)cc2)cn2c(C)nnc12 (stereo not shown) [Example 50, 6-(4-Chlorophenyl)-5-(3,8-dimethyl-[1,2,4]triazolo[4,3-a]pyridin-6-yl)-1-isopropyl-2-(1-methyl-1,2,3,6-tetrahydropyridin-4-yl)-5,6-dihydropyrrolo[3,4-d]imidazol-4(1H)-one] | 27 nM | 41 nM | 23.5 nM | 5400 nM | 233 nM | 495 nM | 575 nM | >10000 nM | 28.8 nM | 57.1 nM
Cc1cc(N2C(=O)c3nc(C4=CCN(C(=O)OCC(C)C)CC4)n(C(C)C)c3C2c2ccc(Cl)cc2)cn2c(C)nnc12 (stereo not shown) [Example 69, isobutyl 4-(6-(4-chlorophenyl)-5-(3,8-dimethyl-[1,2,4]triazolo[4,3-a]pyridin-6-yl)-1-isopropyl-4-oxo-1,4,5,6-tetrahydropyrrolo[3,4-d]imidazol-2-yl)-5,6-dihydropyridine-1(2H)-carboxylate] | 12 nM | 24 nM | 13 nM | 6100 nM | 63.4 nM | 167.5 nM | 184 nM | >10000 nM | 31.6 nM | 58.45 nM
